In patent publication US7579491B2, “Process for preparing brevifoliol” (Council of Scientific and Industrial Research, priority 2002, dated 2009):

Tested on: different cancer cell lines
Experiment: in vitro testing for anticancer activity
Assay type: cell-based
Procedure: The isolation of brevifoliol from leaves of the plant Taxus wallichiana is also reported in S. K. Chattopadhyay et al Indian J. Chemistry 35B, 175-177(1996) as part of studies on the isolation of anticancer compounds. The process of this disclosure involved extracting the dried and crushed needles of Taxus wallichiana with methanol for 72 hours and the extract was concentrated in vacuo. The concentrate was diluted with water and extracted with hexane and chloroform respectively. Concentration of the chloroform phase under vacuum left a residue which was separated by column chromatography over silica gel. Fraction eluted with chloroform-methanol (98:5) contained brevifoliol which was further purified by re-chromatography over silica gel and eluted with chloroform-methanol (99:2). Fractions containing brevifoliol were combined and concentrated and recrystallized from pet-ether and ethyl acetate mixture to get brevifoliol as needles. […] The detection of anticancer activity in brevifoliol prompted the present investigators to develop an efficient processing technology for isolation of the compound in large quantities from the needles of the plant for further biological testing.

With C=C1C2C[C@]3(C(C)(C)O)CC(O)C(C)=C3[C@@H](OC(=O)c3ccccc3)[C@H](OC(C)=O)[C@]2(C)[C@@H](OC(C)=O)C[C@@H]1O (stereo partly shown) [brevifoliol] the anticancer activity was “significant anticancer activity”.
